According to patent US8097617B2, “Organic compounds” (Novartis AG, priority 2006, dated 2012):

Biological target: T1, human DPP-IV (Homo sapiens, UniProt P27487)
T1 construct: Human DPP-IV consisting of amino acids 39 to 766 followed by a C-terminal Streptavidin-tag; Streptavidin-tag (C); made in house
Assay: DPP-IV inhibitory activity assay, fluorogenic substrate H-Gly-Pro-AMC
Type: biochemical
Details: recombinant human DPP-IV (aa 39-766), substrate H-Gly-Pro-AMC 10 μM, room temperature, 1 hour; read-out: IC50 (inhibitory activity to human DPP-4)
Experimental: Some of Compounds 1 to 40 were tested for their inhibitory activity to human DPP-IV.
Human DPP-IV consisting of amino acids 39 to 766 followed by a C-terminal Streptavidin-tag was expressed using the baculovirus system and purified to >80% purity. The enzyme was stored in 25 mM Tris buffer, pH 9.0, containing 300 mM NaCl at −80° C.
The fluorogenic substrates H-Gly-Pro-AMC was purchased from Bachem AG (Bubendorf, Switzerland). The substrate was kept as a 5 mM stock solution in DMSO at −20° C. All other chemicals were purchased from Sigma (Buchs, Switzerland).
The assay buffer for the DPP-IV reaction was 25 mM Tris/HCl, pH 7.5, containing 140 mM NaCl, 10 mM KCl and 0.05% (w/v) CHAPS.
The test compounds were dissolved in 90% DMSO/10% H2O (v/v). Serial dilutions of the compounds from 3 mM to 0.03 μM in 90% DMSO/10% H2O (v/v) followed by a 1:33.3 dilution in assay buffer was done in 96-well polypropylene plates using a CyBio Dilus 8-channel pipettor (CyBio AG, Jena, Germany) with tip change after each pipetting step. The compound solutions as well as the substrate and the enzyme solutions were transferred to the assay plates (384-well black Cliniplate; cat. no. 95040020 Labsystems Oy, Finland) by means of a CyBi-Well 96-channel pipettor (CyBio AG, Jena, Germany).
Enzyme kinetics were measured by mixing 10 μl of a 3-fold concentrated substrate solution in assay buffer (final substrate concentration was 10 μM) with 10 μl of the corresponding compound solution. The reactions were initiated by addition of 10 μl of a 3-fold concentrated solution of the enzyme in assay buffer. Final enzyme (active site) concentrations in the assay was […] for DPP-IV. Fluorescence product (AMC) formation was monitored for 1 hour at room temperature at 35 second intervals by measuring the fluorescence emission at 500 nm using an exitation wavelength of 350 nm in a TECAN Ultra fluorescence reader (TECAN, Maennedorf, Switzerland). The fluorescence in each well was excited by one flash per measurement. The Origin software package (Origin 7.5 Mircocal, Northampton, Mass., USA) was used to generate all graphs and to perform the IC50 calculations.

T1 sequence (P27487 39-766): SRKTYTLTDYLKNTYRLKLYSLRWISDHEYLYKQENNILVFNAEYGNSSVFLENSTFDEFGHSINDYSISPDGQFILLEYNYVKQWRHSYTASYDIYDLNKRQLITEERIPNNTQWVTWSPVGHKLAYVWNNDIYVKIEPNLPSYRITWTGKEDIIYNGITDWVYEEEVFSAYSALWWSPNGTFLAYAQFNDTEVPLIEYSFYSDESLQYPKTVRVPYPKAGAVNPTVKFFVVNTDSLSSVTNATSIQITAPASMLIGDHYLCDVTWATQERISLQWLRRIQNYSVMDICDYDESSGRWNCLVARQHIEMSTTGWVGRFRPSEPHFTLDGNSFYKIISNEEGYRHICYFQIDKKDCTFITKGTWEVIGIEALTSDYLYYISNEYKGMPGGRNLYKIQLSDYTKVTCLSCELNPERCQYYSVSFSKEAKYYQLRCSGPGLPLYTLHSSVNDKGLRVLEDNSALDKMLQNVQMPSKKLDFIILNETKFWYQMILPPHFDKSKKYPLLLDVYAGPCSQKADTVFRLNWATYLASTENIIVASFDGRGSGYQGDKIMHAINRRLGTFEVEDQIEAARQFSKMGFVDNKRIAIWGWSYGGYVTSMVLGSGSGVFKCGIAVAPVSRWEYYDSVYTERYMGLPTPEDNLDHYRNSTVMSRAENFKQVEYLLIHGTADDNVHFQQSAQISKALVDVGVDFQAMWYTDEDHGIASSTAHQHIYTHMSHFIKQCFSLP

Row | IC50 [nM] | SMILES
1 | 23 | NCc1cc2ncc(-c3ccc(F)c(F)c3)n2cc1-c1ccc(Cl)cc1Cl [Compound 4d, C-[6-(2,4-Dichloro-phenyl)-3-(3,4-difluoro-phenyl)-imidazo[1,2-a]pyridin-7-yl]-methylamine]
2 | 23 | COCCN(C)c1cnc2cc(CN)c(-c3ccc(Cl)cc3Cl)cn12 [Compound 7, [7-Aminomethyl-6-(2,4-dichloro-phenyl)-imidazo[1,2-a]pyridin-3-yl]-(2-methoxy-ethyl)-methyl-amine]
3 | 25 | CN1CCC(C(=O)Nc2nnc3cc(CN)c(-c4ccc(Cl)cc4Cl)cn23)CC1 [Compound 18b, 1-Methyl-piperidine-4-carboxylic acid [7-aminomethyl-6-(2,4-dichloro-phenyl)-[1,2,4]triazolo[4,3-a]pyridin-3-yl]-amide]
4 | 22 | NCc1cc2ncc(C(=O)N3CCOCC3)n2cc1-c1ccc(Cl)cc1Cl [Compound 27a, [7-Aminomethyl-6-(2,4-dichloro-phenyl)-imidazo[1,2-a]pyridin-3-yl]-morpholin-4-yl-methanone]
